For data set [1], the system named is Staphylococcus aureus. Description: Antibacterial activity against Staphylococcus aureus ATCC 29213 incubated for 24 hrs by microtiter plate method. It is filed as functional. The note with it: Staphylococcus aureus, ATCC 29213, read-out: MIC.
Data set [2] is described as follows: Hemolytic activity in human RBC assessed as hemolysis incubated for 2 hrs by spectrophotometer analysis. The class given is toxicity, cell-based, Erythrocyte. The note with it: human red blood cells (erythrocytes).
Data set [3] deals with Staphylococcus aureus. Description: Antibacterial activity against methicillin resistant Staphylococcus aureus ATCC BAA-1556 incubated for 24 hrs by microtiter plate method. It is filed as functional.
The test system of the next data set is Escherichia coli. Description: Antibacterial activity against Escherichia coli ATCC 25922 incubated for 24 hrs by microtiter plate method. The class given is functional. The note with it: Escherichia coli, ATCC 25922, 24 h, read-out: MIC.
A further data set relates to Pseudomonas aeruginosa. Description: Antibacterial activity against Pseudomonas aeruginosa ATCC 27883 incubated for 24 hrs by microtiter plate method. It is filed as functional. The following applies: Pseudomonas aeruginosa, ATCC 27883, 24 h, read-out: MIC.
Data set [4] relates to Streptococcus pneumoniae. Nature of the data set: Antibacterial activity against […] ATCC 49619 incubated for 24 hrs by microtiter plate method. It is filed as functional.
Data set [5] concerns Enterococcus faecalis. Nature of the data set: Antibacterial activity against vancomycin-resistant Enterococcus faecalis ATCC 51575 incubated for 24 hrs by microtiter plate method. It is filed as functional.
The next data set relates to Bacillus subtilis. Nature of the data set: Antibacterial activity against Bacillus subtilis ATCC 6633 incubated for 24 hrs by microtiter plate method. The class given is functional.
Data set [6] concerns Enterococcus faecium. Description: Antibacterial activity against vancomycin-resistant Enterococcus faecium ATCC 700221 incubated for 24 hrs by microtiter plate method. It is filed as functional.
Data set [7] has as its system Enterococcus faecium. Nature of the data set: Antibacterial activity against Enterococcus faecium ATCC 27270 incubated for 24 hrs by microtiter plate method. The class given is functional.
Data set [8] concerns Enterococcus faecalis. Description: Antibacterial activity against Enterococcus faecalis ATCC 29212 incubated for 24 hrs by microtiter plate method. The class given is functional.
The test system of a further data set is Bacillus cereus. Nature of the data set: Antibacterial activity against Bacillus cereus ATCC 13061 incubated for 24 hrs by microtiter plate method. It is filed as functional.
The subject of data set [9] is Streptococcus pneumoniae. Description: Antibacterial activity against multidrug resistant […] ATCC 700677 incubated for 24 hrs by microtiter plate method. The class given is functional.
[10] abbreviates: Staphylococcus aureus, ATCC BAA-1556, 24 h, read-out: MIC.

SMILES strings stand for the structures. Converted amounts (≈) assume the structure as drawn. Square brackets hold non-standard residues; d marks the D form. Peptide text beside a SMILES is read from it. Dip = N[C@H](C(=O)O)C(c1ccccc1)c1ccccc1; 2Nal = N[C@@H](Cc1ccc2ccccc2c1)C(=O)O

For the molecule `N=C(N)NCCC[C@H](NC(=O)[C@@H](NC(=O)[C@@H](NC(=O)[C@H](CCCNC(=N)N)NC(=O)[C@H](CCCNC(=N)N)NC(=O)[C@@H](NC(=O)[C@@H](N)CCCNC(=N)N)C(c1ccccc1)c1ccccc1)C(c1ccccc1)c1ccccc1)C(c1ccccc1)c1ccccc1)C(=O)O` (H-R[Dip]RR[Dip][Dip]R-OH), the MIC (in general, the smallest concentration in the dilution series that meets the test's criterion for growth inhibition) came out at 12.5 µg/mL (≈ 9.52 µM) in the data set on Staphylococcus aureus [1], 25 µg/mL (≈ 19 µM) with Staphylococcus aureus [3] (setting [10]), 25 µg/mL (≈ 19 µM) in the data set on Escherichia coli and 100 µg/mL (≈ 76.2 µM) in the data set on Pseudomonas aeruginosa. For the same molecule, the HC50 (usually the concentration giving 50% haemolysis) at 2 h in [2] was determined as 220 µg/mL.

Consider `N=C(N)NCCC[C@@H]1NC(=O)[C@H](CCCNC(=N)N)NC(=O)[C@H](CCCNC(=N)N)NC(=O)[C@H](Cc2ccc3ccccc3c2)NC(=O)[C@H](Cc2ccc3ccccc3c2)NC(=O)[C@H](CCCNC(=N)N)NC1=O` (cyclo([2Nal][2Nal]RRRR)), for which the minimal inhibitory concentration (MIC) in the data set with Staphylococcus aureus [1] came to 6.2 µg/mL (≈ 6.08 µM); with Staphylococcus aureus [3] (setting [10]), 6.2 µg/mL (≈ 6.08 µM); in the data set with Escherichia coli it was 50 µg/mL (≈ 49.1 µM); in the data set with Pseudomonas aeruginosa, 50 µg/mL (≈ 49.1 µM). For the same molecule, the HC50 at 2 h in [2] worked out at 125 µg/mL.

As to `N=C(N)NCCC[C@@H]1NC(=O)[C@H](CCCNC(=N)N)NC(=O)[C@H](Cc2ccc3ccccc3c2)NC(=O)[C@H](Cc2ccc3ccccc3c2)NC(=O)[C@H](Cc2ccc3ccccc3c2)NC(=O)[C@H](CCCNC(=N)N)NC1=O` (cyclo([2Nal][2Nal][2Nal]RRR)), the MIC in the data set on Staphylococcus aureus [1] was 3.1 µg/mL (≈ 2.92 µM); in the data set on Staphylococcus aureus [3] (setting [10]), 6.2 µg/mL (≈ 5.85 µM); with Escherichia coli, 25 µg/mL (≈ 23.6 µM); in the data set with Pseudomonas aeruginosa it was 50 µg/mL (≈ 47.2 µM). Moreover, the HC50 at 2 h in data set [2] is 50 µg/mL.

As for `N=C(N)NCCC[C@@H]1NC(=O)[C@H](CCCNC(=N)N)NC(=O)[C@H](CCCNC(=N)N)NC(=O)[C@H](Cc2ccc3ccccc3c2)NC(=O)[C@H](Cc2ccc3ccccc3c2)NC(=O)[C@H](Cc2ccc3ccccc3c2)NC(=O)[C@H](CCCNC(=N)N)NC(=O)[C@H](CCCNC(=N)N)NC1=O` (cyclo([2Nal][2Nal][2Nal]RRRRR)), the MIC in the data set with Staphylococcus aureus [1] was determined as 3.1 µg/mL (≈ 2.26 µM); with Staphylococcus aureus [3] (setting [10]) it was 6.2 µg/mL (≈ 4.52 µM); with Escherichia coli it was 50 µg/mL (≈ 36.4 µM); in the data set on Pseudomonas aeruginosa, 25 µg/mL (≈ 18.2 µM). In data set [2], the HC50 at 2 h stood at 90 µg/mL.

For `N=C(N)NCCC[C@@H]1NC(=O)[C@H](CCCNC(=N)N)NC(=O)[C@H](CCCNC(=N)N)NC(=O)[C@H](Cc2ccc3ccccc3c2)NC(=O)[C@H](Cc2ccc3ccccc3c2)NC(=O)[C@H](Cc2ccc3ccccc3c2)NC(=O)[C@H](Cc2ccc3ccccc3c2)NC(=O)[C@H](CCCNC(=N)N)NC1=O` (cyclo([2Nal][2Nal][2Nal][2Nal]RRRR)), the MIC in the data set with Staphylococcus aureus [1] was 3.1 µg/mL (≈ 2.19 µM); with Staphylococcus aureus [3] (setting [10]), 6.2 µg/mL (≈ 4.39 µM); in the data set on Escherichia coli, 25 µg/mL (≈ 17.7 µM); with Pseudomonas aeruginosa it was 50 µg/mL (≈ 35.4 µM). The HC50 at 2 h in [2] came to 30 µg/mL.

With `N=C(N)NCCC[C@@H]1NC(=O)[C@H](CCCNC(=N)N)NC(=O)[C@H](CCCNC(=N)N)NC(=O)[C@H](C(c2ccccc2)c2ccccc2)NC(=O)[C@H](C(c2ccccc2)c2ccccc2)NC(=O)[C@H](CCCNC(=N)N)NC1=O` (cyclo([Dip][Dip]RRRR)), the MIC with Staphylococcus aureus [1] is 6.2 µg/mL (≈ 5.79 µM); with Staphylococcus aureus [3] (setting [10]) it was 6.2 µg/mL (≈ 5.79 µM); with Escherichia coli, 50 µg/mL (≈ 46.7 µM); in the data set with Pseudomonas aeruginosa, 25 µg/mL (≈ 23.3 µM). Besides, the HC50 at 2 h in data set [2] was 110 µg/mL.

For `NCCCC[C@@H]1NC(=O)[C@H](CCCCN)NC(=O)[C@H](CCCCN)NC(=O)[C@H](C(c2ccccc2)c2ccccc2)NC(=O)[C@H](C(c2ccccc2)c2ccccc2)NC(=O)[C@H](C(c2ccccc2)c2ccccc2)NC(=O)[C@H](CCCCN)NC1=O` (cyclo([Dip][Dip][Dip]KKKK)), the MIC with Staphylococcus aureus [1] was 12.5 µg/mL (≈ 10.6 µM); with Staphylococcus aureus [3] (setting [10]), 12.5 µg/mL (≈ 10.6 µM); with Escherichia coli it was over 100 µg/mL; in the data set with Pseudomonas aeruginosa, over 100 µg/mL. For the same molecule, the HC50 at 2 h in [2] worked out at 165 µg/mL.

As for `NCCCC[C@@H]1NC(=O)[C@H](CCCCN)NC(=O)[C@H](CCCCN)NC(=O)[C@H](C(c2ccccc2)c2ccccc2)NC(=O)[C@H](C(c2ccccc2)c2ccccc2)NC(=O)[C@H](C(c2ccccc2)c2ccccc2)NC(=O)[C@H](CCCCN)NC(=O)[C@H](CCCCN)NC1=O` (cyclo([Dip][Dip][Dip]KKKKK)), the MIC in the data set with Staphylococcus aureus [1] is 6.2 µg/mL (≈ 4.73 µM); in the data set with Staphylococcus aureus [3] (setting [10]), 12.5 µg/mL (≈ 9.54 µM); in the data set on Escherichia coli, 50 µg/mL (≈ 38.1 µM); in the data set on Pseudomonas aeruginosa, over 100 µg/mL. Also, the HC50 at 2 h in data set [2] amounted to 180 µg/mL.

Turning to `N=C(N)NCCC[C@@H]1NC(=O)[C@H](CCCNC(=N)N)NC(=O)[C@H](CCCNC(=N)N)NC(=O)[C@H](C(c2ccccc2)c2ccccc2)NC(=O)[C@H](C(c2ccccc2)c2ccccc2)NC(=O)[C@H](C(c2ccccc2)c2ccccc2)NC(=O)[C@H](CCCNC(=N)N)NC(=O)[C@H](CCCNC(=N)N)NC1=O` (cyclo([Dip][Dip][Dip]RRRRR)), the MIC in the data set with Staphylococcus aureus [1] is 6.2 µg/mL (≈ 4.27 µM); with Staphylococcus aureus [3] (setting [10]) it was 6.2 µg/mL (≈ 4.27 µM); in the data set with Escherichia coli, 25 µg/mL (≈ 17.2 µM); with Pseudomonas aeruginosa, 25 µg/mL (≈ 17.2 µM). The HC50 at 2 h in data set [2] amounted to 100 µg/mL.

`N=C(N)NCCC[C@@H]1NC(=O)[C@H](CCCNC(=N)N)NC(=O)[C@H](CCCNC(=N)N)NC(=O)[C@H](C(c2ccccc2)c2ccccc2)NC(=O)[C@H](C(c2ccccc2)c2ccccc2)NC(=O)[C@H](C(c2ccccc2)c2ccccc2)NC(=O)[C@H](C(c2ccccc2)c2ccccc2)NC(=O)[C@H](CCCNC(=N)N)NC1=O` (cyclo([Dip][Dip][Dip][Dip]RRRR)): the MIC was 3.1 µg/mL (≈ 2.04 µM) in the data set with Staphylococcus aureus [1], 6.2 µg/mL (≈ 4.08 µM) in the data set with Staphylococcus aureus [3] (setting [10]), 25 µg/mL (≈ 16.5 µM) with Escherichia coli and 25 µg/mL (≈ 16.5 µM) in the data set with Pseudomonas aeruginosa. For the same molecule, in data set [2], the HC50 at 2 h stood at 40 µg/mL.

Consider `N=C(N)NCCC[C@@H]1NC(=O)[C@H](CCCNC(=N)N)NC(=O)[C@H](C(c2ccccc2)c2ccccc2)NC(=O)[C@H](C(c2ccccc2)c2ccccc2)NC(=O)[C@H](CCCNC(=N)N)NC(=O)[C@H](CCCNC(=N)N)NC(=O)[C@H](C(c2ccccc2)c2ccccc2)NC1=O` (stereo in doubt; 16C), for which the MIC in the data set on Staphylococcus aureus [1] was 6.2 µg/mL (≈ 4.79 µM); with Staphylococcus aureus [3] (24 h), 6.2 µg/mL (≈ 4.79 µM); in the data set with Escherichia coli, over 100 µg/mL; in the data set on Pseudomonas aeruginosa, 50 µg/mL (≈ 38.6 µM). Moreover, the HC50 at 2 h in data set [2] came to 130 µg/mL.

`N=C(N)NCCC[C@@H]1NC(=O)[C@H](CCCNC(=N)N)NC(=O)[C@H](Cc2ccc3ccccc3c2)NC(=O)[C@H](Cc2ccc3ccccc3c2)NC(=O)[C@H](CCCNC(=N)N)NC(=O)[C@H](CCCNC(=N)N)NC(=O)[C@H](Cc2ccc3ccccc3c2)NC1=O` (stereo in doubt; 18C): the MIC in the data set on Staphylococcus aureus [1] was 6.2 µg/mL (≈ 5.1 µM); with Staphylococcus aureus [3] (setting [10]), 6.2 µg/mL (≈ 5.1 µM); with Escherichia coli, 25 µg/mL (≈ 20.6 µM); with Pseudomonas aeruginosa, over 100 µg/mL. The HC50 at 2 h in data set [2] stood at 105 µg/mL.

For `CN[C@H](CC(C)C)C(=O)N[C@H]1C(=O)N[C@@H](CC(N)=O)C(=O)N[C@H]2C(=O)N[C@H]3C(=O)N[C@H](C(=O)N[C@H](C(=O)O)c4cc(O)cc(O)c4-c4cc3ccc4O)[C@H](O)c3ccc(c(Cl)c3)Oc3cc2cc(c3O[C@@H]2O[C@H](CO)[C@@H](O)[C@H](O)[C@H]2O[C@H]2C[C@](C)(N)[C@H](O)[C@H](C)O2)Oc2ccc(cc2Cl)[C@H]1O` [VANCOMYCIN], the MIC in the data set with Streptococcus pneumoniae [4] was 3.1 µg/mL (≈ 2.14 µM); in the data set on Enterococcus faecalis [5], over 50 µg/mL; in the data set on Bacillus subtilis, 0.7 µg/mL (≈ 0.483 µM); against Enterococcus faecium [6], over 50 µg/mL; against Enterococcus faecium [7] it was 1.5 µg/mL (≈ 1.04 µM); in the data set with Enterococcus faecalis [8], 0.7 µg/mL (≈ 0.483 µM). For the same molecule, the MIC against Bacillus cereus came out at 0.7 µg/mL (≈ 0.483 µM); with Streptococcus pneumoniae [9] it was 1.5 µg/mL (≈ 1.04 µM).

Source of the values: ChEMBL document CHEMBL5154681, “Small Amphiphilic Peptides: Activity Against a Broad Range of Drug-Resistant Bacteria and Structural Insight into Membranolytic Properties” (J Med Chem, 2022).
